Experimental data published in publication PMC11597774, “Investigation of Antimicrobial and Anti-Inflammatory Efficacy of Newly Synthesized Pyrogallol-Coumarin Hybrids: In Vitro and In Silico Studies” (Pharmaceutics, 2024).
Values after ≈ are worked out from the molar mass of the structure shown. Where two headings read alike, the source gives them in different places.

Experiments:
[1] = tested on: B. subtilis (isolate); assay: Microdilution MIC/MMC with resazurin; assay type: cell-based, Bacillus subtilis; details: for MIC: Bacillus subtilis
Procedure: (§1) The antimicrobial activity of PCH-1 and PCH-2 was tested against 13 microorganisms. The experiment included four standard strains, Staphylococcus aureus ATCC 6538, Bacillus subtilis ATCC 6633, Proteus mirabilis ATCC 12453, and Pseudomonas aeruginosa ATCC 27853; five isolates, Staphylococcus aureus, Escherichia coli, Salmonella enterica, Klebsiella pneumoniae, and Bacillus subtilis; and one probiotic strain Lactobacillus plantarum 299V. Additionally, three fungal strains were tested, including one standard strain, Candida albicans ATCC 10231, and two isolates, Saccharomyces cerevisiae and probiotic strain Saccharomyces boulardii.
(§2) The bacterial suspensions were prepared using the direct colony method. The turbidity of the initial suspension was adjusted using a densitometer (DEN-1, BioSan, Latvia). When adjusted to the turbidity of the 0.5 McFarland standard, the bacterial suspension contains approximately 10^8 colony-forming units (CFU)/mL, and the yeast suspension contains approximately 10^6 CFU/mL. For the experiment, the initial suspension was further diluted at a 1:100 ratio in a sterile 0.85% saline solution.
(§3) The antimicrobial activity was assessed by determining the minimum inhibitory concentrations (MICs) and minimum microbicidal concentrations (MMCs) using the microdilution plate method with resazurin (Alfa Aesar GmbH & Co. (KG, Karlsruhe, Germany)). For this, 96-well plates were prepared by adding 100 μL of Mueller Hinton broth (Torlak, Belgrade, Serbia) for bacterial tests and Sabouraud broth (Torlak, Belgrade, Serbia) for yeast into each well. The tested PCH-1 and PCH-2 were dissolved in 10% dimethyl sulfoxide (DMSO) and then diluted into sterile distilled water. A 100 μL sample from the stock solution of the tested compound was then added to the first row of the plate, followed by twofold serial dilutions using a multichannel pipette. This produced a concentration range from 2.69 to 0.0025 µmol/L. The method is described in detail in the reported paper.
(§4) Each test setup included growth control and sterility control. […] Minimum microbicidal concentrations (MMCs) were determined as described in detail in the reported paper.

[2] = tested on: B. subtilis ATCC 6633; assay: Microdilution MIC/MMC with resazurin; assay type: cell-based, Bacillus subtilis; details: for MIC: Bacillus subtilis, ATCC6633
Procedure: as §1, §2, §3, §4

[3] = tested on: K. pneumoniae; assay: Microdilution MIC/MMC with resazurin; assay type: cell-based, Klebsiella pneumoniae; details: for MIC: Klebsiella pneumoniae
Procedure: as §1, §2, §3, §4

[4] = tested on: P. mirabilis ATCC 12453; assay: Microdilution MIC/MMC with resazurin; assay type: cell-based, Proteus mirabilis; details: for MIC: Proteus mirabilis, ATCC12453
Procedure: as §1, §2, §3, §4

[5] = tested on: P. aeruginosa ATCC 27853; assay: Microdilution MIC/MMC with resazurin; assay type: cell-based, Pseudomonas aeruginosa; details: for MIC: Pseudomonas aeruginosa, ATCC27853
Procedure: as §1, §2, §3, §4

[6] = tested on: E. coli; assay: Microdilution MIC/MMC with resazurin; assay type: cell-based, Escherichia coli; details: for MIC: Escherichia coli
Procedure: as §1, §2, §3, §4

[7] = tested on: S. cerevisiae; assay: Microdilution MIC/MMC with resazurin; assay type: cell-based, Saccharomyces cerevisiae; details: for MIC: Saccharomyces cerevisiae
Procedure: as §1, §2, §3, §4

[8] = tested on: S. boulardii; assay: Microdilution MIC/MMC with resazurin; assay type: cell-based, Saccharomyces boulardii; details: for MIC: Saccharomyces cerevisiae
Procedure: as §1, §2, §3, §4

[9] = tested on: S. aureus ATCC 25923; assay: Inhibition of biofilm formation (crystal violet); assay type: cell-based, Staphylococcus aureus; details: for BIC90: S. aureus ATCC 25923, 48 h
[10] = tested on: P. aeruginosa ATCC 27853; assay: Inhibition of biofilm formation (crystal violet); assay type: cell-based, Pseudomonas aeruginosa; details: for BIC90: P. aeruginosa ATCC 27853, 48 h; for IC50: Pseudomonas aeruginosa, ATCC27853, P. aeruginosa ATCC 27853, 48 h, read-out: BIC50
Procedure: The ability of S. aureus ATCC 6538, P. mirabilis ATCC 12453, and P. aeruginosa ATCC 27853 to form biofilms was assayed as described by O’Toole et al. (2000), with some modifications. Briefly, tissue culture 96-well microtiter plates (Sarstedt, Germany) were prepared by dispensing 100 µL of nutrient broth (i.e., Mueller Hinton broth) into each well. Then, 10 µL of spore suspension (1.0 McFarland for Gram-positive bacteria and 0.5 McFarland for Gram-negative bacteria) was added to each row. To encourage biofilm formation, all plates were incubated at 37 °C for 48 h, after which the content of each well was emptied and washed twice with 200 µL of sterile 0.85% saline to remove non-adherent cells. The biofilms formed were fixed by adding 100 µL of methanol until it evaporated completely, then stained with 0.1% (w/v) crystal violet (Fluka AG, Buchs, Switzerland) and left at room temperature for 20 min. The excess stain was washed away with deionized water, followed by […] of 96% ethanol. The optical densities (ODs) of the stained biofilms were measured with an ELISA plate reader (RT-2100C, Rayto, Shenzhen, China) at 630 nm. Control wells containing only broth were included to verify sterility and prevent nonspecific media binding. To account for background absorbance, OD readings from sterile medium, fixative, and dye were averaged and subtracted from all test measurements. All tests were conducted in duplicate. The tissue culture 96-well microtiter plates (Sarstedt, Germany) were prepared by dispensing 100 µL of nutrient broth (i.e., Mueller Hinton broth) into each well. From the stock solutions of tested PCH-1 and PCH-2 (at a concentration of 5.4 µmol/L), 100 µL was added to the first row of the microtiter plate. Twofold serial dilutions were then performed, followed by the addition of 10 µL of bacterial suspension to each well. The turbidity of the bacterial suspension was 0.5 McFarland for Gram-negative bacteria and 1.0 McFarland for Gram-positive bacteria. The microtiter plates prepared in this way were incubated at 37 °C for 48 h. The remaining steps of the experiment were carried out as outlined below. […] Only broth or broth with tested PCH-1 and PCH-2 served as controls to check sterility and nonspecific binding of media. To compensate for background absorbance, OD readings from sterile medium, extracts, fixative, and dye were averaged and subtracted from all test values. All tests were performed in duplicate.

[11] = Staphylococcus aureus, ATCC25923, S. aureus ATCC 25923, 48 h, read-out: BIC50

SMILES | MMC [1] [mM] | MIC [1] [µM] | MMC [2] [mM] | MIC [2] [µM] | MMC [3] [mM] | MIC [3] [µM] | MMC [4] [mM] | MIC [4] [µM] | MMC [5] [mM] | MIC [5] [µM] | MMC [6] [mM] | MIC [6] [µM] | MMC [7] [mM] | MIC [7] [µM] | MMC [8] [mM] | MIC [8] [µM] | BIC90 [9] | IC50 [9, 11] [µM] | BIC90 [10] | IC50 [10] [µM] | also measured
C/C(NNC(=O)c1ccc(O)c(O)c1O)=C1\C(=O)Oc2ccccc2C1=O [PCH-1, (E)-N′-(1-(2,4-dioxochroman-3-ylidene)ethyl)-2,3,4-trihydroxybenzohydrazide] | 1.35 | 1350 (≈ 500 µg/mL) | 2.70 | 2700 (≈ 1000 µg/mL) | 0.34 | 170 (≈ 63 µg/mL) | 0.17 | 80 (≈ 29.6 µg/mL) | 0.34 | 340 (≈ 126 µg/mL) | 0.34 | 340 (≈ 126 µg/mL) | 2.70 | 1350 (≈ 500 µg/mL) | 2.70 | 1350 (≈ 500 µg/mL) | ˃2.70 mM | > 2700 | ˃2.70 mM | > 2700 | 
C/C(NNC(=O)c1cc(O)c(O)c(O)c1)=C1\C(=O)Oc2ccccc2C1=O [PCH-2, (E)-N′-(1-(2,4-dioxochroman-3-ylidene)ethyl)-3,4,5-trihydroxybenzohydrazide] | 1.35 | 1350 (≈ 500 µg/mL) | 0.34 | 340 (≈ 126 µg/mL) | 0.34 | 170 (≈ 63 µg/mL) | 0.17 | 80 (≈ 29.6 µg/mL) | 0.67 | 340 (≈ 126 µg/mL) | 0.34 | 170 (≈ 63 µg/mL) | 2.70 | 1350 (≈ 500 µg/mL) | 2.70 | 2700 (≈ 1000 µg/mL) | ˃2.70 mM | 1020 | ˃2.70 mM | > 2700 | IC50 ([9]; ATCC25923, Staphylococcus aureus ATCC 25923, read-out: BIC50): 378 µg/mL
